# Target: T1, hITK enzyme (FLAG-tagged full-length hITK) (Homo sapiens, UniProt Q08881)
# T1 construct: strongly expressing FLAG-tagged full-length hITK in Sf9 cells; FLAG; made in house; host or cells: Sf9 insect cells (ITK); Escherichia coli (GST-SLP76 substrate)
# T1 sequence (Q08881 1-620): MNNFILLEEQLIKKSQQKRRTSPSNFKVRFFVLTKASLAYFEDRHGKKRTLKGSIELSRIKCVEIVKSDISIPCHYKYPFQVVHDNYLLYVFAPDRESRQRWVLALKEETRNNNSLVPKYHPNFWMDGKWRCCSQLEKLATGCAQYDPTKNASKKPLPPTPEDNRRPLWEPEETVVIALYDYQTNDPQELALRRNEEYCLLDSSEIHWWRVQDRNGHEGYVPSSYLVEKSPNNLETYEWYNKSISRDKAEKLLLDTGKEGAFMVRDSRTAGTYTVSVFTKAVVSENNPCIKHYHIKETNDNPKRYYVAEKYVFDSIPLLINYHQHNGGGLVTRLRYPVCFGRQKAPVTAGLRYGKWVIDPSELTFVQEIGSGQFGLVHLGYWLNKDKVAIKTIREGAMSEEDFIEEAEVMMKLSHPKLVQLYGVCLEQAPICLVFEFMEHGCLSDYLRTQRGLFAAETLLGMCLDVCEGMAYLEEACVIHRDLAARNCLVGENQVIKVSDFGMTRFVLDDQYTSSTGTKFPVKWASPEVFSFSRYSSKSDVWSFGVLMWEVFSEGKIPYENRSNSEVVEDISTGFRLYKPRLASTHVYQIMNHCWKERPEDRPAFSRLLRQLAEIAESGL
# Test: ITK inhibitory activity (HTRF kinase assay, biotinylated GST-SLP76 substrate)
# Assay type: biochemical
# Details: IC50 calculated from the 2 test compound concentrations sandwiching 50% ITK inhibitory rate
# Experimental: (1) Preparation of hITK Enzyme
# hITK enzyme was prepared by strongly expressing FLAG-tagged full-length hITK in Sf9 cells, and purifying same by anti-FLAG antibody column.
# (2) Preparation of biotinylated GST-SLP76
# Biotinylated GST-SLP76 was prepared by strongly expressing GST-tagged SLP76 (aa95-175) in Escherichia coli, purifying same by glutathion sepharose column and biotinylating same.
# (3) Preparation of Solution
# (i) buffer for dilution: 20 mmol/L 3-(N-morpholino)propanesulfonic acid (pH 7.0) (DOJINDO LABORATORIES), 10 mmol/L magnesium chloride (Sigma-Aldrich Corporation), 1 mmol/L dithiothreitol (Nacalai Tesque, Inc.), 0.1% gelatin (Sigma-Aldrich Corporation)
# (ii) substrate solution: 0.2 μg/mL biotinylated GST-SLP76, 100 μmol/L ATP (Sigma-Aldrich Corporation), prepared with buffer for dilution
# (iii) test compound solution: test compound, 50% dimethyl sulfoxide (DMSO), prepared with buffer for dilution
# (iv) enzyme solution: 50 ng/mL hITK enzyme, prepared with buffer for dilution
# (v) control solution: solution after removal of test compound from the mixture of the above-mentioned (i), (ii) and (iii)
# (vi) blank solution: solution after removal of ATP from the mixture of the above-mentioned (i), (ii) and (iii)
# (vii) detection buffer: 0.1 μg/mL Anti-Phosphotyrosine (PT66)-Cryptate (Cisbio), 2.5 μg/mL streptavidin-binding XL665 (Cisbio), 50 mmol/L 4-(2-hydroxyethyl)-1-piperazineethanesulfonic acid (pH 7.4) (Nacalai Tesque, Inc.), 30 mmol/L EDTA (NipponGene), 0.1% TritonX (Sigma-Aldrich Corporation), 200 mmol/L potassium fluoride (Wako Pure Chemical Industries, Ltd.), 0.05% bovine serum albumin (Sigma-Aldrich Corporation) (4) Measurement of ITK Inhibitory Activity
# A substrate solution (25 μL/well), a test compound solution (5 μL/well) and an enzyme solution (20 μL/well) were added into 96 well half-area white plate (plate, Corning Incorporated 3642) to start a kinase reaction. The plate was stood still at room temperature for 10 min. Then, a detection buffer (50 μL/well) was added to the plate. After 2 hr from the addition of the detection buffer, fluorescence intensity at 620 nm (excited at 337 nm), and fluorescence intensity at 665 nm ([…]) were measured by a fluorescence microplate reader.
# The Ratio (fluorescence intensity at 665 nm/fluorescence intensity at 620 nm×10000) of each test compound was calculated from the measured fluorescence intensity. Simultaneously, the measurement was performed using a blank solution and a control solution, and % of control value of each test compound was calculated from the following formula. % of control=(Ratio of test compound−Ratio of blank)/(Ratio of control−Ratio of blank)×100 ITK inhibitory rate (%)=100−(% of control)
# The IC50 value was calculated from the test compound concentrations at 2 points sandwiching 50% ITK inhibitory rate.
# In the test for the compounds of Examples 380 and 381, the ATP concentration of the substrate solutions was 6 μmol/L.
row,SMILES,IC50 [nM]
1,CC(O)C(=O)N(C)c1ccc2cc(-c3n[nH]c4c3CCC(C)(C)C4)[nH]c2c1 (centres unmarked) [Example 46],5
2,COCC(OC)C(=O)N(C)c1ccc2cc(-c3n[nH]c4c3CCC(C)(C)C4)[nH]c2c1 (centres unmarked) [Example 47],8
3,COC(CO)C(=O)N(C)c1ccc2cc(-c3n[nH]c4c3CCC(C)(C)C4)[nH]c2c1 (centres unmarked) [Example 48],6
4,CCC(O)C(=O)N(C)c1ccc2cc(-c3n[nH]c4c3CCC(C)(C)C4)[nH]c2c1 (centres unmarked) [Example 49],3
5,CCC(OC)C(=O)N(C)c1ccc2cc(-c3n[nH]c4c3CCC(C)(C)C4)[nH]c2c1 (centres unmarked) [Example 50],4
6,CN(C(=O)NCc1ccccc1)c1ccc2cc(-c3n[nH]c4c3CCC(C)(C)C4)[nH]c2c1 [Example 51],26
7,CN(C(=O)C1CCCO1)c1ccc2cc(-c3n[nH]c4c3CCC(C)(C)C4)[nH]c2c1 (centres unmarked) [Example 52],< 3
8,COCC(O)C(=O)N(C)c1ccc2cc(-c3n[nH]c4c3CCC(C)(C)C4)[nH]c2c1 (centres unmarked) [Example 53],8
9,CN(C(N)=O)c1ccc2cc(-c3n[nH]c4c3CCC(C)(C)C4)[nH]c2c1 [Example 54],18
10,CCCOCC(=O)N(C)c1ccc2cc(-c3n[nH]c4c3CCC(C)(C)C4)[nH]c2c1 [Example 55],< 3
11,CC(C)OCC(=O)N(C)c1ccc2cc(-c3n[nH]c4c3CCC(C)(C)C4)[nH]c2c1 [Example 56],< 3
12,CN(C(=O)C(=O)c1ccccc1)c1ccc2cc(-c3n[nH]c4c3CCC(C)(C)C4)[nH]c2c1 [Example 57],17
13,COCC(C)C(=O)N(C)c1ccc2cc(-c3n[nH]c4c3CCC(C)(C)C4)[nH]c2c1 (centres unmarked) [Example 58],6
14,Cc1cc(C(=O)N(C)c2ccc3cc(-c4n[nH]c5c4CCC(C)(C)C5)[nH]c3c2)no1 [Example 59],7
15,CN(C(=O)C1CCOCC1)c1ccc2cc(-c3n[nH]c4c3CCC(C)(C)C4)[nH]c2c1 [Example 60],5
16,CC(CO)C(=O)N(C)c1ccc2cc(-c3n[nH]c4c3CCC(C)(C)C4)[nH]c2c1 (centres unmarked) [Example 61],6
17,COCCC(=O)N(C)c1ccc2cc(-c3n[nH]c4c3CCC(C)(C)C4)[nH]c2c1 [Example 62],4
18,CN(C(=O)CCO)c1ccc2cc(-c3n[nH]c4c3CCC(C)(C)C4)[nH]c2c1 [Example 63],6
19,CC(=O)N1CCC(C(=O)N(C)c2ccc3cc(-c4n[nH]c5c4CCC(C)(C)C5)[nH]c3c2)CC1 [Example 64],6
20,CN1CCC(C(=O)N(C)c2ccc3cc(-c4n[nH]c5c4CCC(C)(C)C5)[nH]c3c2)CC1 [Example 65],55
21,CN(C(=O)C1CCOC1)c1ccc2cc(-c3n[nH]c4c3CCC(C)(C)C4)[nH]c2c1 (centres unmarked) [Example 66],3
22,CC(C)C(O)C(=O)N(C)c1ccc2cc(-c3n[nH]c4c3CCC(C)(C)C4)[nH]c2c1 (centres unmarked) [Example 67],4
23,CN(C(=O)C(O)c1ccccc1)c1ccc2cc(-c3n[nH]c4c3CCC(C)(C)C4)[nH]c2c1 (centres unmarked) [Example 68],7
24,CN(C(=O)CC(C)(C)O)c1ccc2cc(-c3n[nH]c4c3CCC(C)(C)C4)[nH]c2c1 [Example 69],4
25,CCC(=O)N(C)c1ccc2cc(-c3n[nH]c4c3CCC(C)(C)C4)[nH]c2c1 [Example 70],3
26,CN(C(=O)CC1CCCO1)c1ccc2cc(-c3n[nH]c4c3CCC(C)(C)C4)[nH]c2c1 (centres unmarked) [Example 71],< 3
27,CN(C(=O)CC1CCCCC1)c1ccc2cc(-c3n[nH]c4c3CCC(C)(C)C4)[nH]c2c1 [Example 72],9

row,SMILES,IC50 [nM]
1,CN(C(=O)COc1ccncc1)c1ccc2cc(-c3n[nH]c4c3CCC(C)(C)C4)[nH]c2c1 [Example 73],< 3
2,COC1CCC(C(=O)N(C)c2ccc3cc(-c4n[nH]c5c4CCC(C)(C)C5)[nH]c3c2)CC1 (centres unmarked) [Example 74],4
3,CN(C(=O)C(C)(C)COCc1ccccc1)c1ccc2cc(-c3n[nH]c4c3CCC(C)(C)C4)[nH]c2c1 [Example 75],34
4,CN(C(=O)C(C)(C)CO)c1ccc2cc(-c3n[nH]c4c3CCC(C)(C)C4)[nH]c2c1 [Example 76],4
5,CN(C(=O)[C@H](O)C1CCCCC1)c1ccc2cc(-c3n[nH]c4c3CCC(C)(C)C4)[nH]c2c1 [Example 77],6
6,CN(C(=O)[C@@H](O)C1CCCCC1)c1ccc2cc(-c3n[nH]c4c3CCC(C)(C)C4)[nH]c2c1 [Example 78],7
7,CN(C(=O)CN1CCCCC1)c1ccc2cc(-c3n[nH]c4c3CCC(C)(C)C4)[nH]c2c1 [Example 79],13
8,CN(C(=O)CN1CCOCC1)c1ccc2cc(-c3n[nH]c4c3CCC(C)(C)C4)[nH]c2c1 [Example 80],3
9,COC1CCN(CC(=O)N(C)c2ccc3cc(-c4n[nH]c5c4CCC(C)(C)C5)[nH]c3c2)CC1 [Example 81],8
10,CO[C@H]1CC[C@H](C(=O)N(C)c2ccc3cc(-c4n[nH]c5c4CCC(C)(C)C5)[nH]c3c2)CC1 [Example 82],7
11,CN(C(=O)CN1CCCC1=O)c1ccc2cc(-c3n[nH]c4c3CCC(C)(C)C4)[nH]c2c1 [Example 83],< 3
12,CN(c1ccc2cc(-c3n[nH]c4c3CCC(C)(C)C4)[nH]c2c1)C(=O)[C@H]1CC[C@@H](O)CC1 [Example 84],< 3
13,CO[C@H]1CC[C@@H](C(=O)N(C)c2ccc3cc(-c4n[nH]c5c4CCC(C)(C)C5)[nH]c3c2)CC1 [Example 85],4
14,CN(C(=O)COc1cccnc1)c1ccc2cc(-c3n[nH]c4c3CCC(C)(C)C4)[nH]c2c1 [Example 86],< 3
15,CN(C(=O)COC1CCOC1)c1ccc2cc(-c3n[nH]c4c3CCC(C)(C)C4)[nH]c2c1 (centres unmarked) [Example 87],< 3
16,CN(C(=O)COC1CCOCC1)c1ccc2cc(-c3n[nH]c4c3CCC(C)(C)C4)[nH]c2c1 [Example 88],3
17,CN(C(=O)Cn1ccnc1)c1ccc2cc(-c3n[nH]c4c3CCC(C)(C)C4)[nH]c2c1 [Example 89],< 3
18,CN(C(=O)CC1CCCC1)c1ccc2cc(-c3n[nH]c4c3CCC(C)(C)C4)[nH]c2c1 [Example 92],10
19,CN(C(=O)CCC1CCCCC1)c1ccc2cc(-c3n[nH]c4c3CCC(C)(C)C4)[nH]c2c1 [Example 93],48
20,CN(C(=O)CC1CCOCC1)c1ccc2cc(-c3n[nH]c4c3CCC(C)(C)C4)[nH]c2c1 [Example 94],4
21,CN(C(=O)C(O)C1CCOCC1)c1ccc2cc(-c3n[nH]c4c3CCC(C)(C)C4)[nH]c2c1 (centres unmarked) [Example 95],3
22,CN(C(=O)C(O)C1CCCOC1)c1ccc2cc(-c3n[nH]c4c3CCC(C)(C)C4)[nH]c2c1 (centres unmarked) [Example 96],3
23,CC(C(=O)N(C)c1ccc2cc(-c3n[nH]c4c3CCC(C)(C)C4)[nH]c2c1)C1CCCCC1 (centres unmarked) [Example 97],20
24,CC(C(=O)N(C)c1ccc2cc(-c3n[nH]c4c3CCC(C)(C)C4)[nH]c2c1)C1CCOCC1 (centres unmarked) [Example 98],3
25,COC1CCCC(C(=O)N(C)c2ccc3cc(-c4n[nH]c5c4CCC(C)(C)C5)[nH]c3c2)C1 (centres unmarked) [Example 99],26
26,COC1CCCC(C(=O)N(C)c2ccc3cc(-c4n[nH]c5c4CCC(C)(C)C5)[nH]c3c2)C1 (centres unmarked) [Example 100],5
